*1 amine or outer side, *2 acyl side, *3 side chain or, on linkers, in order; H or OH if unused. Where a SMILES comes first, the peptide text is derived from it. Bridges are numbered along the chain shown (N, C = ends). [ ]: non-standard residue; d: D form. The star is where a group is joined. TBMB(SCH2CH2NH-DOTA) = O=C(O)CN1CCN(CC(=O)O)CCN(CC(=O)NCCSCc2cc(C[*:1])cc(C[*:2])c2)CCN(CC(=O)O)CC1; X5 = NC(=O)[C@H](CCCCNC(=O)CN1CCN(CC(=O)O)CCN(CC(=O)O)CCN(CC(=O)O)CC1)NC(=O)CCC(=O)NCCCOCCOCCOCCCN*; X25 = NC(=O)C(CCCCNC(=O)CN1CCN(CC(=O)O)CCN(CC(=O)O)CCN(CC(=O)O)CC1)NC(=O)CCC(=O)NCCCOCCOCCOCCCN*; X19 = O=C(O)CN1CCN(CC(=O)O)CCN(CC(=O)N2CCN(Cc3cc(C[*:1])cc(C[*:2])c3)CC2)CCN(CC(=O)O)CC1; X3 = O=C(O)CN1CCN(CC(=O)O)CCN(CC(=O)NCCCOCCOCCOCCCN*)CCN(CC(=O)O)CC1; NMeW = CN[C@@H](Cc1c[nH]c2ccccc12)C(=O)O; 1Nal = N[C@@H](Cc1cccc2ccccc12)C(=O)O; 2Nal = N[C@@H](Cc1ccc2ccccc2c1)C(=O)O; mXylylene = c1cc(C[*:1])cc(C[*:2])c1; Cha = N[C@@H](CC1CCCCC1)C(=O)O; NMeL = CN[C@@H](CC(C)C)C(=O)O; αMeL = CC(C)C[C@](C)(N)C(=O)O; Suc = O=C(CCC(=O)[*:2])[*:1]; NMeC = CN[C@@H](CS)C(=O)O; Aib = CC(C)(N)C(=O)O

This assay addresses T1, GIPR (CHO-K1-hGIPR cells) (Homo sapiens, UniProt P48546).
T1 construct: host or cells: CHO-K1
T1 sequence (P48546 22-466): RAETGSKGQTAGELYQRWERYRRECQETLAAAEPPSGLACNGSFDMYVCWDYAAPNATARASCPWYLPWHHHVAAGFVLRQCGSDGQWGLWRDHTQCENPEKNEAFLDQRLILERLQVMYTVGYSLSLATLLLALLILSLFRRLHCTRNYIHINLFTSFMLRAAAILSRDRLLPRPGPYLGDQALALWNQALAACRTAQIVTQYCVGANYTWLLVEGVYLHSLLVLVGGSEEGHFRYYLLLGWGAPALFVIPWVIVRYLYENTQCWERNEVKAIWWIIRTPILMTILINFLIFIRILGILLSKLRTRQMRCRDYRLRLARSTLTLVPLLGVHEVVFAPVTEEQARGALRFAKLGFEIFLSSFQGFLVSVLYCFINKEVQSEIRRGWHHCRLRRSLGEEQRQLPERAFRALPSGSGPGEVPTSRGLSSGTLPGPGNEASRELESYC
The assay is described as follows: FACS binding assay. Conditions: competition with 20 nM GIP-057, 4° C. for 1 hour, read-out: pIC50 Category (converted). The procedure, abridged: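 Peptide binding read by flow cytometry as APC-channel median fluorescence, fitted with a four-parameter logistic to yield EC50 or IC50. Cells were hGIPR-transfected CHO-K1 in PBS with 1% FCS, detected with 1 μg/mL APC-streptavidin, 30 min on ice.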
For the molecule `CC[C@H](C)[C@@H]1NC(=O)[C@H](CC(C)C)NC(=O)[C@@H](C)NC(=O)[C@@H](NC(=O)[C@@H](CC(C)C)NC(=O)[C@H](CCC(=O)O)NC(=O)[C@@H]2CCCN2C(=O)[C@H](Cc2c[nH]c3ccccc23)NC(=O)[C@H](Cc2c[nH]c3ccccc23)NC(=O)[C@H](CC(=O)O)NC(=O)CCC(=O)NCCCOCCOCCOCCCNC(=O)CN2CCN(CC(=O)O)CCN(CC(=O)O)CCN(CC(=O)O)CC2)CSCc2cccc(c2)CSC[C@@H](C(=O)O)NC1=O` [GIP-285, DOTA-Ttds-Asp-Trp-Trp-Pro-Glu-leu-[Cys(3MeBn)-ala-Leu-Ile-Cys]-OH] ({X3-Suc}-DWWPE[dL]C[dA]LIC-OH; linker 7-11 via mXylylene), the IC50 is more than 1000 nM.
To `CC[C@H](C)[C@@H]1NC(=O)[C@H](CC(C)C)NC(=O)[C@@H](C)NC(=O)[C@@H](NC(=O)[C@@H](CC(C)C)NC(=O)[C@H](CCC(=O)O)NC(=O)[C@@H]2CCCN2C(=O)[C@H](Cc2c[nH]c3ccccc23)NC(=O)[C@H](Cc2c[nH]c3ccccc23)NC(=O)CCC(=O)O)CSCc2cc(cc(CN3CCN(C(=O)CN4CCN(CC(=O)O)CCN(CC(=O)O)CCN(CC(=O)O)CC4)CC3)c2)CSC[C@@H](C(N)=O)NC1=O` [GIP-286, HO-Succinyl-Trp-Trp-Pro-Glu-leu-[Cys(tMeBn(DOTA-PP))-ala-Leu-Ile-Cys]-NH2] (Suc-WWPE[dL]C[dA]LIC-NH2; linker 6-10 via X19) belongs more than 1000 nM; to `CC[C@H](C)[C@@H]1NC(=O)[C@H](CC(C)C)NC(=O)[C@@H](C)NC(=O)[C@@H](NC(=O)[C@@H](CC(C)C)NC(=O)[C@H](CCC(=O)O)NC(=O)[C@@H]2CCCN2C(=O)[C@H](Cc2c[nH]c3ccccc23)NC(=O)[C@H](Cc2c[nH]c3ccccc23)NC(=O)CCC(=O)O)CSCc2cc(CSCCNC(=O)CN3CCN(CC(=O)O)CCN(CC(=O)O)CCN(CC(=O)O)CC3)cc(c2)CSC[C@@H](C(N)=O)NC1=O` [GIP-287, HO-Succinyl-Trp-Trp-Pro-Glu-leu-[Cys(tMeBn(DOTA-AET))-ala-Leu-Ile-Cys]-NH2] (Suc-WWPE[dL]C[dA]LIC-NH2; linker 6-10 via TBMB(SCH2CH2NH-DOTA)), more than 1000 nM; to `CC[C@H](C)[C@@H]1NC(=O)[C@H](CC(C)C)NC(=O)[C@@H](C)NC(=O)[C@@H](NC(=O)[C@@H](CC(C)C)NC(=O)[C@H](CCC(=O)O)NC(=O)[C@@H]2CCCN2C(=O)[C@H](Cc2c[nH]c3ccccc23)NC(=O)[C@H](Cc2c[nH]c3ccccc23)NC(=O)CCC(=O)O)CSCc2cccc(c2)CSC[C@@H](C(=O)NCCCOCCOCCOCCCNC(=O)CCC(=O)N[C@@H](CCCCNC(=O)CN2CCN(CC(=O)O)CCN(CC(=O)O)CCN(CC(=O)O)CC2)C(N)=O)NC1=O` [GIP-288, HO-Succinyl-Trp-Trp-Pro-Glu-leu-[Cys(3MeBn)-ala-Leu-Ile-Cys]-Ttds-Lys(DOTA)-NH2] (Suc-WWPE[dL]C[dA]LIC-X5; linker 6-10 via mXylylene), more than 1000 nM.
In the case of `CC[C@H](C)[C@@H]1NC(=O)[C@H](CC(C)C)NC(=O)C(C)(C)NC(=O)[C@@H](NC(=O)[C@H](CC(C)C)NC(=O)[C@H](CCC(=O)O)NC(=O)[C@@H]2CCCN2C(=O)[C@H](Cc2c[nH]c3ccccc23)N(C)C(=O)[C@H](Cc2c[nH]c3ccccc23)NC(=O)[C@H](CC(=O)O)NC(C)=O)CSCc2cccc(c2)CSC[C@@H](C(=O)NCCCOCCOCCOCCCNC(=O)CCC(=O)N[C@@H](CCCCNC(=O)CN2CCN(CC(=O)O)CCN(CC(=O)O)CCN(CC(=O)O)CC2)C(N)=O)NC1=O` [GIP-289, Ac-Asp-Trp-Nmw-Pro-Glu-Leu-[Cys(3MeBn)-Aib-Leu-Ile-Cys]-Ttds-Lys(DOTA)-NH2] (Ac-DW[NMeW]PELC[Aib]LIC-X5; linker 7-11 via mXylylene), the IC50 was more than 1000 nM.
With `CC[C@H](C)[C@@H]1NC(=O)[C@H](CC(C)C)NC(=O)C(C)(C)NC(=O)[C@@H](NC(=O)[C@H](CC(C)C)N(C)C(=O)[C@H](CCC(=O)O)NC(=O)[C@@H]2CCCN2C(=O)[C@H](Cc2c[nH]c3ccccc23)NC(=O)[C@H](Cc2c[nH]c3ccccc23)NC(=O)[C@H](CC(=O)O)NC(C)=O)CSCc2cccc(c2)CSC[C@@H](C(=O)NCCCOCCOCCOCCCNC(=O)CCC(=O)N[C@@H](CCCCNC(=O)CN2CCN(CC(=O)O)CCN(CC(=O)O)CCN(CC(=O)O)CC2)C(N)=O)NC1=O` [GIP-290, Ac-Asp-Trp-Trp-Pro-Glu-Nml-[Cys(3MeBn)-Aib-Leu-Ile-Cys]-Ttds-Lys(DOTA)-NH2] (Ac-DWWPE[NMeL]C[Aib]LIC-X5; linker 7-11 via mXylylene) the figure was more than 1000 nM; with `CC[C@H](C)[C@@H]1NC(=O)[C@H](CC(C)C)NC(=O)C(C)(C)NC(=O)[C@@H](N(C)C(=O)[C@H](CC(C)C)NC(=O)[C@H](CCC(=O)O)NC(=O)[C@@H]2CCCN2C(=O)[C@H](Cc2c[nH]c3ccccc23)NC(=O)[C@H](Cc2c[nH]c3ccccc23)NC(=O)[C@H](CC(=O)O)NC(C)=O)CSCc2cccc(c2)CSC[C@@H](C(=O)NCCCOCCOCCOCCCNC(=O)CCC(=O)N[C@@H](CCCCNC(=O)CN2CCN(CC(=O)O)CCN(CC(=O)O)CCN(CC(=O)O)CC2)C(N)=O)NC1=O` [GIP-291, Ac-Asp-Trp-Trp-Pro-Glu-Leu-[Nmc(3MeBn)-Aib-Leu-Ile-Cys]-Ttds-Lys(DOTA)-NH2] (Ac-DWWPEL[NMeC][Aib]LIC-X5; linker 7-11 via mXylylene), more than 1000 nM; with `CC[C@H](C)[C@@H]1NC(=O)[C@H](CC(C)C)NC(=O)C(C)(C)NC(=O)[C@@H](NC(=O)[C@H](CC(C)C)NC(=O)[C@H](CCC(=O)O)NC(=O)[C@@H]2CCCN2C(=O)[C@H](Cc2c[nH]c3ccccc23)NC(=O)[C@H](Cc2c[nH]c3ccccc23)NC(=O)[C@H](CC(=O)O)NC(C)=O)CSCc2cccc(c2)CSC[C@@H](C(=O)NCCCOCCOCCOCCCNC(=O)CCC(=O)N[C@@H](CCCCNC(=O)CN2CCN(CC(=O)O)CCN(CC(=O)O)CCN(CC(=O)O)CC2)C(N)=O)N(C)C1=O` [GIP-292, Ac-Asp-Trp-Trp-Pro-Glu-Leu-[Cys(3MeBn)-Aib-Leu-Ile-Nmc]-Ttds-Lys(DOTA)-NH2] (Ac-DWWPELC[Aib]LI[NMeC]-X5; linker 7-11 via mXylylene), more than 1000 nM.
To `CC[C@H](C)[C@@H]1NC(=O)[C@H](CC(C)C)NC(=O)C(C)(C)NC(=O)[C@@H](NC(=O)[C@H](CC(C)C)NC(=O)[C@H](CCC(=O)O)NC(=O)[C@@H]2CCCN2C(=O)[C@H](Cc2c[nH]c3ccccc23)NC(=O)[C@H](Cc2cccc3ccccc23)NC(=O)[C@H](CC(=O)O)NC(C)=O)CSCc2cccc(c2)CSC[C@@H](C(=O)NCCCOCCOCCOCCCNC(=O)CCC(=O)N[C@@H](CCCCNC(=O)CN2CCN(CC(=O)O)CCN(CC(=O)O)CCN(CC(=O)O)CC2)C(N)=O)NC1=O` [GIP-293, Ac-Asp-1Ni-Trp-Pro-Glu-Leu-[Cys(3MeBn)-Aib-Leu-Ile-Cys]-Ttds-Lys(DOTA)-NH2] (Ac-D[1Nal]WPELC[Aib]LIC-X5; linker 7-11 via mXylylene) belongs more than 1000 nM; to `CC[C@H](C)[C@@H]1NC(=O)[C@H](CC(C)C)NC(=O)C(C)(C)NC(=O)[C@@H](NC(=O)[C@H](CC(C)C)NC(=O)[C@H](CCC(=O)O)NC(=O)[C@@H]2CCCN2C(=O)[C@H](Cc2ccc3ccccc3c2)NC(=O)[C@H](Cc2c[nH]c3ccccc23)NC(=O)[C@H](CC(=O)O)NC(C)=O)CSCc2cccc(c2)CSC[C@@H](C(=O)NCCCOCCOCCOCCCNC(=O)CCC(=O)NC(CCCCNC(=O)CN2CCN(CC(=O)O)CCN(CC(=O)O)CCN(CC(=O)O)CC2)C(N)=O)NC1=O` (stereo partly drawn) [GIP-294, Ac-Asp-Trp-2Ni-Pro-Glu-Leu-[Cys(3MeBn)-Aib-Leu-Ile-Cys]-Ttds-Lys(DOTA)-NH2] (Ac-DW[2Nal]PELC[Aib]LIC-X25; linker 7-11 via mXylylene), more than 1000 nM; to `CC[C@H](C)[C@@H]1NC(=O)[C@H](CC(C)C)NC(=O)C(C)(C)NC(=O)[C@@H](NC(=O)[C@H](CC2CCCCC2)NC(=O)[C@H](CCC(=O)O)NC(=O)[C@@H]2CCCN2C(=O)[C@H](Cc2c[nH]c3ccccc23)NC(=O)[C@H](Cc2c[nH]c3ccccc23)NC(=O)[C@H](CC(=O)O)NC(C)=O)CSCc2cccc(c2)CSC[C@@H](C(=O)NCCCOCCOCCOCCCNC(=O)CCC(=O)N[C@@H](CCCCNC(=O)CN2CCN(CC(=O)O)CCN(CC(=O)O)CCN(CC(=O)O)CC2)C(N)=O)NC1=O` [GIP-295, Ac-Asp-Trp-Trp-Pro-Glu-Cha-[Cys(3MeBn)-Aib-Leu-Ile-Cys]-Ttds-Lys(DOTA)-NH2] (Ac-DWWPE[Cha]C[Aib]LIC-X5; linker 7-11 via mXylylene), more than 1000 nM.
To `CC[C@H](C)[C@@H]1NC(=O)[C@H](CC(C)C)NC(=O)C(C)(C)NC(=O)[C@@H](NC(=O)[C@](C)(CC(C)C)NC(=O)[C@H](CCC(=O)O)NC(=O)[C@@H]2CCCN2C(=O)[C@H](Cc2c[nH]c3ccccc23)NC(=O)[C@H](Cc2c[nH]c3ccccc23)NC(=O)[C@H](CC(=O)O)NC(C)=O)CSCc2cccc(c2)CSC[C@@H](C(=O)NCCCOCCOCCOCCCNC(=O)CCC(=O)N[C@@H](CCCCNC(=O)CN2CCN(CC(=O)O)CCN(CC(=O)O)CCN(CC(=O)O)CC2)C(N)=O)NC1=O` [GIP-296, Ac-Asp-Trp-Trp-Pro-Glu-Aml-[Cys(3MeBn)-Aib-Leu-Ile-Cys]-Ttds-Lys(DOTA)-NH2] (Ac-DWWPE[αMeL]C[Aib]LIC-X5; linker 7-11 via mXylylene) belongs more than 1000 nM.

Source of the values: US20250296971A1, “GASTRIC INHIBITORY PEPTIDE RECEPTOR LIGANDS” (priority 2021, published 2025).
